Experimental data as given in patent publication US10813886B2, “Methods and systems for improved bioavailability of active pharmaceutical ingredients including esomeprazole” (priority 2013, dated 2020).
≈ marks a conversion by molar mass, not a printed value.

Tests used:
[1] = cited from earlier work
[2] = human, in vivo
Text: Patients were selected from volunteers aged 18 to 65 years, inclusive, with a Body Mass Index (BMI) between […] inclusive and free from any significant diseases including cardiac, renal and gastrointestinal disease. […] The crossover design eliminated potential treatment effects on the outcome, as well as effectively allowing the subject to serve as their own control. Each dosing occasion was separated by a 7-14 day washout period. Fasting conditions represented an overnight fast of at least 10 hours and fed state was after a high calorie, high fat breakfast 30 minutes prior to dosing.
The % EMT was quantified from human plasma according to methods based on the FDA Bioanalytical Method Validation Guide for Industry and the EMA Guideline on bioanalytical method validation (York Bioanalytical Solutions). Briefly, plasma samples were submitted to supported liquid extraction and liquid chromatography with tandem mass spectrometric detection (lower limit of quantification 5.00 ng/ml with a sample aliquot volume of 100 microliters). The analytes detected were esomeprazole, 5-hydroxyomeprazole, and omeprazole sulphone and were validated against commercial samples and calibration standards. […] Calibration samples were obtained commercially as follows: esomeprazole (Sigma-Aldrich), 5-hydroxyomeprazole, and omeprazole sulphone (Toronto Chemicals Inc.). Internal standards omeprazole d3, 5-hydroxyomeprazole d3 and omeprazole sulphone-d3 were also utilized (Toronto Chemicals Inc.). Plasma samples were stored at −20° C. Data was collected using Analyst software (Applied Biosystems-Sciex) in combination with Watson LIMS (Thermo Fisher Scientific); peak area ratios were used to generate calibration curves using regression functions.

[3] = as the magnesium trihydrate, cited from earlier work

In the case of `COc1ccc2nc([S@@+]([O-])Cc3ncc(C)c(OC)c3C)[nH]c2c1` [Esomeprazole], the “stability in acid conditions” value ([1]; acid conditions) is given as “degrades”, the “stability at pH 6.8” value ([1]; pH 6.8) is given as “stable” and the “Intra-subject Coefficient of Variation of AUCinf” value [2] is given as 40.85 CV %. For the same compound, the “Intra-subject Coefficient of Variation of AUCt” value [2] was 83.08 CV %, the “Intra-subject Coefficient of Variation of Cmax” value [2] was 97.51 CV % and the solubility in heptane [3] was “insoluble”. For the same compound, the solubility in water ([3]; in water at 25° C.) was 1500 µg/mL (≈ 4.34 mM).
